Reference: patent US20150159169A1, “Plants Tolerant to HPPD Inhibitor Herbicides” (Bayer CropScience AG, priority 2009, published 2015)
Where “and” joins values, the source holds several entries; their conditions need not be identical. Identical values can stand only once.

Experiments:
[1] = test system: T1 tobacco plants containing FMP27e (Kordia algicida HPPD FMP27); test: Glasshouse spray trial, % injury; format: in vivo, Nicotiana tabacum; conditions: 7DAT, 100 gAI/ha spray
Description: (§1) T0 Tobacco plants containing either the gene from Arabidopsis coding for HPPD or the gene FMP27e from Kordia algicida coding for FMP27 HPPD, mentioned above (Example 3), were transferred to the glasshouse (28/20° C.), to develop further and produce seeds. Those seeds were harvested and put on soil (ED73 mixed with sand and osmocote Pro) to germinate in the glasshouse (28/20° C.). Three to four weeks later, plantlets were transferred to single pots containing the soil mentioned above. Two weeks later, plants of a size 4-6 cm diameter were sprayed with either • tembotrione at 100 gAI/ha prepared from a WP20 (wettable powder 20%) formulation supplemented with ammonium sulfate and methyl ester raps oil, or • isoxaflutole at 100 gAI/ha prepared from a WP20 formulation supplemented with ammonium sulfate and methyl ester raps oil, or • bicyclopyrone at 100 gAI/ha prepared from a WP20 formulation supplemented with ammonium sulfate and methyl ester raps oil, or • “blind formulation” made from a WP20 formulation without active ingredient (AI) supplemented with ammonium sulfate and methyl ester raps oil, and were then transferred to a growth chamber with adequate light conditions (20000 Lux).
(§2) Table 6: Wild type tobacco plants (A) and T1 populations of tobacco events containing alternatively, the expression cassettes described above having the promoter CaMV 35S, the sequence coding for OTP and the sequence coding for Arabidopsis HPPD (B) or the promoter CaMV35S, the sequence encoding OTP, and the sequence FMP27e coding for the HPPD FMP27 (C). Assessments of herbicidal damage at 7 days after application (DAT) per spray with 100 g AI/ha of tembotrione or isoxaflutole supplemented with ammonium sulfate and methyl ester raps oil. […] Plants belonging to categories (B) and (C) have not been selected for the presence of the respective transgene prior to the herbicide application.

[2] = test system: T1 tobacco plants containing Arabidopsis HPPD; test: Glasshouse spray trial, % injury; format: in vivo, Nicotiana tabacum; conditions: 7DAT, 100 gAI/ha spray
Description: as §1, §2

wild type tobacco plants = test: Glasshouse spray trial, % injury; format: in vivo, Nicotiana tabacum; conditions: 7DAT, 100 gAI/ha spray; individual WT plants; 100% = bleaching as wild type
Description: as §1, §2

[3] = test system: transgenic soybean shoots (FMP27 protein); test: Soybean shoot greening on isoxaflutole selection; format: cell-based; conditions: isoxaflutole as selection marker
From the text: (§3) Soybean transformation was achieved using methods well known in the art, such as the one described using the Agrobacterium tumefaciens mediated transformation soybean half-seed explants described by Paz et al. (2006, Plant cell Rep. 25:206). Transformants were identified using Isoxaflutole as selection marker. The appearance of green shoots was observed, and documented as an indicator of tolerance to the herbicide isoxaflutole. […] Tolerant green shoots were transferred to rooting media or grafted. Rooted plantlets were transferred to the glasshouse after an acclimation period.

wild-type soybean shoots = test: Soybean shoot greening on isoxaflutole selection; format: cell-based; conditions: same amount of isoxaflutole
From the text: as §3

Compound: CS(=O)(=O)c1cc(C(F)(F)F)ccc1C(=O)c1cnoc1C1CC1 [Isoxaflutole, (5-cyclopropyl-4-isoxazolyl)[2-(methylsulfonyl)-4-(trifluoromethyl)phenyl]methanone]
- % injury ([1]; line 121, individual T1 plants): 0% (4×) and 1% and 2% and 20%
- % injury ([1]; line 129, individual T1 plants): 0% (4×) and 1% (3×) and 2% (3×) and 5% and 10% (2×)
- % injury ([1]; line 218, individual T1 plants): 0% (9×) and 1% (3×) and 2% and 3% and 5%
- % injury ([2]; line 252, individual T1 plants): 30% and 70% and 95% and 98% (2×) and 99% (4×) and 100% (4×)
- % injury ([2]; line 258, individual T1 plants): 100%
- % injury ([2]; line 327, individual T1 plants): 10% and 20% and 60% (2×) and 70% and 80% and 95% and 98% and 99% and 100% (6×)
- % injury (wild type tobacco plants): 99% (2×) and 100% (4×) and 98%
- transgenic tested shoots showing normal greening [3]: 1%
- appearance of shoots treated with isoxaflutole (wild-type soybean shoots): entirely bleached
